Measured values as given in PubChem BioAssay (NCI).
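GI50: concentration for 50% inhibition of growth. TGI: concentration producing complete growth inhibition.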

How the values were obtained:
Assay in all cases: inhibition of tumour cell growth, NCI panel, 384-well format
HT29 colon = test system: HT29 colon
MDA-MB-435 melanoma = test system: MDA-MB-435 melanoma
RXF 393 renal = test system: RXF 393 renal
HCC-2998 colon = test system: HCC-2998 colon
LOX IMVI melanoma = test system: LOX IMVI melanoma
OVCAR-5 ovarian = test system: OVCAR-5 ovarian
MCF7 breast = test system: MCF7 breast
BT-549 breast = test system: BT-549 breast
PC-3 prostate = test system: PC-3 prostate
NCI-H322M lung = test system: NCI-H322M lung
HCT-15 colon = test system: HCT-15 colon
CCRF-CEM leukemia = test system: CCRF-CEM leukemia
SK-OV-3 ovarian = test system: SK-OV-3 ovarian
CAKI-1 renal = test system: CAKI-1 renal
M14 melanoma = test system: M14 melanoma
786-0 renal = test system: 786-0 renal
SF-539 CNS = test system: SF-539 CNS
SF-295 CNS = test system: SF-295 CNS
NCI-H226 lung = test system: NCI-H226 lung
SK-MEL-28 melanoma = test system: SK-MEL-28 melanoma
MALME-3M melanoma = test system: MALME-3M melanoma
HL-60(TB) leukemia = test system: HL-60(TB) leukemia
HOP-92 NSCLC = test system: HOP-92 NSCLC
UO-31 renal = test system: UO-31 renal
NCI-H460 NSCLC = test system: NCI-H460 NSCLC
SR leukemia = test system: SR leukemia
TK-10 renal = test system: TK-10 renal
IGROV1 ovarian = test system: IGROV1 ovarian
A549 NSCLC = test system: A549 NSCLC
A498 renal = test system: A498 renal
SK-MEL-5 melanoma = test system: SK-MEL-5 melanoma
MOLT-4 leukemia = test system: MOLT-4 leukemia
KM12 colon = test system: KM12 colon
UACC-62 melanoma = test system: UACC-62 melanoma
OVCAR-4 ovarian = test system: OVCAR-4 ovarian
UACC-257 melanoma = test system: UACC-257 melanoma
MDA-MB-468 breast = test system: MDA-MB-468 breast
RPMI-8226 leukemia = test system: RPMI-8226 leukemia
OVCAR-8 ovarian = test system: OVCAR-8 ovarian
SF-268 CNS = test system: SF-268 CNS
K-562 leukemia = test system: K-562 leukemia
T-47D breast = test system: T-47D breast
SK-MEL-2 melanoma = test system: SK-MEL-2 melanoma
U251 glioblastoma = test system: U251 glioblastoma
NCI-H522 lung = test system: NCI-H522 lung

Cc1c(Nc2nccc3cc(CN4CC[C@@H](O)C4)cnc23)cccc1-c1cccc(-c2nc3cc(CN4CC[C@@H](C(=O)O)C4)cc(C#N)c3o2)c1C
GI50 (HT29 colon): 213 nM | TGI (HT29 colon): 496 nM | GI50 (MDA-MB-435 melanoma): 47.3 nM | TGI (MDA-MB-435 melanoma): 206 nM | GI50 (RXF 393 renal): 137 nM | TGI (RXF 393 renal): 390 nM | GI50 (HCC-2998 colon): 318 nM | TGI (HCC-2998 colon): 1250 nM | GI50 (LOX IMVI melanoma): 668 nM | TGI (LOX IMVI melanoma): 1860 nM | GI50 (OVCAR-5 ovarian): 522 nM | TGI (OVCAR-5 ovarian): > 100 µM | GI50 (MCF7 breast): 223 nM | TGI (MCF7 breast): 1430 nM | GI50 (BT-549 breast): 140 nM | TGI (BT-549 breast): 532 nM | GI50 (PC-3 prostate): 403 nM | TGI (PC-3 prostate): 1750 nM | GI50 (NCI-H322M lung): 416 nM | TGI (NCI-H322M lung): > 100 µM | GI50 (HCT-15 colon): 1530 nM | TGI (HCT-15 colon): 3.01 µM | GI50 (CCRF-CEM leukemia): 147 nM | TGI (CCRF-CEM leukemia): 287 nM | GI50 (SK-OV-3 ovarian): 246 nM | TGI (SK-OV-3 ovarian): 1180 nM | GI50 (CAKI-1 renal): 464 nM | TGI (CAKI-1 renal): > 100 µM | GI50 (M14 melanoma): 259 nM | TGI (M14 melanoma): 866 nM | GI50 ([…]-0 renal): 334 nM | TGI (786-0 renal): 1260 nM | GI50 (SF-539 CNS): 274 nM | TGI (SF-539 CNS): 971 nM | GI50 (SF-295 CNS): 416 nM | TGI (SF-295 CNS): 1450 nM | GI50 (NCI-H226 lung): 449 nM | TGI (NCI-H226 lung): 3.73 µM | GI50 (SK-MEL-28 melanoma): 261 nM | TGI (SK-MEL-28 melanoma): 1620 nM | GI50 (MALME-3M melanoma): 127 nM | TGI (MALME-3M melanoma): 851 nM | GI50 (HL-60(TB) leukemia): 172 nM | TGI (HL-60(TB) leukemia): 314 nM | GI50 (HOP-92 NSCLC): 297 nM | TGI (HOP-92 NSCLC): 1970 nM | GI50 (UO-31 renal): 3.25 µM | TGI (UO-31 renal): > 100 µM | GI50 (NCI-H460 NSCLC): 193 nM | TGI (NCI-H460 NSCLC): 435 nM | GI50 (SR leukemia): 28.9 nM | TGI (SR leukemia): 107 nM | GI50 (TK-10 renal): 1660 nM | TGI (TK-10 renal): > 100 µM | GI50 (IGROV1 ovarian): 1070 nM | TGI (IGROV1 ovarian): > 100 µM | GI50 (A549 NSCLC): 441 nM | TGI (A549 NSCLC): 2970 nM | GI50 (A498 renal): 391 nM | TGI (A498 renal): 1490 nM | GI50 (SK-MEL-5 melanoma): 94.8 nM | TGI (SK-MEL-5 melanoma): 321 nM | GI50 (MOLT-4 leukemia): 171 nM | TGI (MOLT-4 leukemia): 315 nM | GI50 (KM12 colon): 69.7 nM | TGI (KM12 colon): 679 nM | GI50 (UACC-62 melanoma): 304 nM | TGI (UACC-62 melanoma): 1850 nM | GI50 (OVCAR-4 ovarian): 459 nM | TGI (OVCAR-4 ovarian): 4.98 µM | GI50 (UACC-257 melanoma): 229 nM | TGI (UACC-257 melanoma): 1040 nM | GI50 (MDA-MB-468 breast): 117 nM | TGI (MDA-MB-468 breast): 310 nM | GI50 (RPMI-8226 leukemia): 152 nM | TGI (RPMI-8226 leukemia): 290 nM | GI50 (OVCAR-8 ovarian): 514 nM | TGI (OVCAR-8 ovarian): 1830 nM | GI50 (SF-268 CNS): 371 nM | TGI (SF-268 CNS): 3.96 µM | GI50 (K-562 leukemia): 205 nM | TGI (K-562 leukemia): 567 nM | GI50 (T-47D breast): 325 nM | TGI (T-47D breast): > 100 µM | GI50 (SK-MEL-2 melanoma): 26.2 nM | TGI (SK-MEL-2 melanoma): 142 nM | GI50 (U251 glioblastoma): 335 nM | TGI (U251 glioblastoma): 1150 nM | GI50 (NCI-H522 lung): 118 nM | TGI (NCI-H522 lung): 287 nM
